We go through one compound from patent US10081609B2, “Compounds for inducing proliferation and differentiation of cells, and methods of use thereof” (The Broad Institute, Inc., priority 2013, dated 2018).

Usually inhibition stands for the relative decrease from the control value, in per cent. A high value points to a strong effect.

For one data set, the target named is PDGFRβ (Homo sapiens, UniProt P09619). Description: Kinome analysis (panel of kinases). It counts as biochemical. The method, then: (§1) Selected compounds of the invention (FPH1 and FPH2; both at 1 μM concentration) were screened against a panel of kinases (FIG. 17).
PDGFRβ, sequence (P09619 33-1106, species assumed): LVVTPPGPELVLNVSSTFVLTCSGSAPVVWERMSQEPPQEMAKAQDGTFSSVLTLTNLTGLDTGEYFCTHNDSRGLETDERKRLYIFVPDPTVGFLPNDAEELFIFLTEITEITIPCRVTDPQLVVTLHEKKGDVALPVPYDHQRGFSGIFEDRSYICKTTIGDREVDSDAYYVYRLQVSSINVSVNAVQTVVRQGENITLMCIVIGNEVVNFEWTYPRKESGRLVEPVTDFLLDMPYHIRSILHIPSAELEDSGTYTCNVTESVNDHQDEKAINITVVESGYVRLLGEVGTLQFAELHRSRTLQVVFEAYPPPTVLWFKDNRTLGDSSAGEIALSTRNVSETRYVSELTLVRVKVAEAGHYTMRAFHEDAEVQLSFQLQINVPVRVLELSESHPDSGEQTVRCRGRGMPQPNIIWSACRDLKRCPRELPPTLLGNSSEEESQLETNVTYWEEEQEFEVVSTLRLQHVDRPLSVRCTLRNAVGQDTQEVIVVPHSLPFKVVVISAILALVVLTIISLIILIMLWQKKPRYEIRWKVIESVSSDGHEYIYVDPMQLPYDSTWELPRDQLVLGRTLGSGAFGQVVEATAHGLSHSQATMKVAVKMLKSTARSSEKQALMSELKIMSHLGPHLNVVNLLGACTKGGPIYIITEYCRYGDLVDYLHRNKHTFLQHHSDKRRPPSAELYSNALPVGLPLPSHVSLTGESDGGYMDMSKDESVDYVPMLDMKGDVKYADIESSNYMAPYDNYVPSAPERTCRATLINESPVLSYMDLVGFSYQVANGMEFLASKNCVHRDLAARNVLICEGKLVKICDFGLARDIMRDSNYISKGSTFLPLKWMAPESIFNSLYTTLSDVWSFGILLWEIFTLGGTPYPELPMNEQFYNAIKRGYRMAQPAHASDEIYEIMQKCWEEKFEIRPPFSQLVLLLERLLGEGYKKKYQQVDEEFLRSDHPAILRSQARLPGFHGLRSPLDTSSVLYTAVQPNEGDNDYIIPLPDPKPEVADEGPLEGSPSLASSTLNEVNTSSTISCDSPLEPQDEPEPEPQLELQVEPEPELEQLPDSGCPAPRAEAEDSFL
Another data set deals with CLK4 (Homo sapiens, UniProt Q9HAZ1). Description: Kinome analysis (panel of kinases). Format: biochemical. The method, then: as §1
CLK4, sequence (Q9HAZ1 whole entry, species assumed): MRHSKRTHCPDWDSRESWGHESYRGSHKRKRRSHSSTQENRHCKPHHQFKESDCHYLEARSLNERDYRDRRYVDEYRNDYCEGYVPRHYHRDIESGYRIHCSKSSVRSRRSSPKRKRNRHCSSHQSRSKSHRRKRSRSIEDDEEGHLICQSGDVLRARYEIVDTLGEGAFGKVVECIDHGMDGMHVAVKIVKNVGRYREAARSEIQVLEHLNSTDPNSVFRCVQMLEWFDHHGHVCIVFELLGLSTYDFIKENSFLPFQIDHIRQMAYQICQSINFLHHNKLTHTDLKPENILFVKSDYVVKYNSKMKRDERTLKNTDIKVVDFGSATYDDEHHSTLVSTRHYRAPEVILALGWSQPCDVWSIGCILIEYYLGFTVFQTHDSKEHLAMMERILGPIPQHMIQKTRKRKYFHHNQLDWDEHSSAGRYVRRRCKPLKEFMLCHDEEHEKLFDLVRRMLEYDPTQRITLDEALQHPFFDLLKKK
Another data set addresses RSK3 (Homo sapiens, UniProt Q15349). Description: Kinome analysis (panel of kinases). Format: biochemical. The method, then: as §1
Another data set has as its target Ron (Homo sapiens, UniProt Q04912). Briefly: Kinome analysis (panel of kinases). It counts as biochemical. Here is the method: as §1
The next data set concerns the target CaMK1 δ (Homo sapiens, UniProt Q8IU85). Description: Kinome analysis (panel of kinases). Format: biochemical. Here is the method: as §1
Data set [1] deals with iHeps. Briefly: Differentiation of human iPS-derived hepatocytes (iHeps): morphology and immunofluorescent staining. It counts as cell-based. Here is the method: The ability of compounds of the invention to affect the differentiation and maturation of iHeps was tested. Undifferentiated iPS cells were cultured on Matrigel, supported by primary mouse embryonic fibroblasts. Once confluent, iPS cells were transitioned to differentiation media, with sequential addition of growth factors (Activin A, BMP-4, bFGF, HGF, and OSM) to guide differentiation, first into endoderm, then into hepatic progenitor cells and finally into iHeps. Compound treatment started on day 21 post initiation of differentiation and acted over a period of 9 days. FH1 and FPH2 were used to treat iHeps. FH1 doubled albumin secretion during primary screening (FIG. 4A left) in a dose-responsive manner (FIG. 4A right).
To examine the effects of FH1 and FPH2 at the protein level, AFP, albumin and CYP3A4 levels weew visualized via immunofluorescent staining. […] This is in agreement with primary screening results as well as earlier morphological findings. Untreated cultures had islands that double stain for albumin and the fetal marker AFP, with very little presence of the mature marker CYP3A4.

In data set [2] the test system is human primary hepatocytes. Briefly: High-throughput liver platform, primary screening: hepatocyte proliferation by automated high-content imaging (hepatocyte nuclei numbers). Format: cell-based. As to conditions: primary screening. The method, then: In order to avoid species-specific differences and cell line mutations, the screen was conducted with human primary hepatocytes. Traditionally, chemical screening on such cells has been hindered by their availability in large quantities as well as their rapid loss of viability and phenotype in vitro. Recent advances in cryopreservation technologies allowed enough primary human cells to be stored for screening; these cells are maintained through co-cultivation with non-parenchymal cells. Co-cultures of primary human hepatocytes with murine embryonic J2-3T3 fibroblasts were recently shown to maintain normal hepatocyte phenotype for weeks. These in vitro platforms consisted of hepatocytes surrounded by a co-planar population of fibroblasts. While sufficient for stabilizing hepatocyte functions in vitro, such platforms may limit normal hepatocyte expansion due to contact inhibition. Thus, for this screen, a sparse population of hepatocytes was co-cultivated on top of a confluent feeder layer of J2-3T3 fibroblasts within 384-well plates (FIG. 1A top). This screening platform stabilized hepatocyte phenotypic functions in vitro (FIG. 1A bottom) and was compatible with two separate high-throughput readouts developed for this screen.
The primary readout detected hepatocyte proliferation via automated high-content imaging. This assay quantified hepatocyte nuclei numbers, using nuclear morphologies to separate the hepatocyte and fibroblast subpopulations that co-exist within the screening platform. When visualized with Hoechst stain, hepatocyte nuclei were smaller and more uniform in texture while fibroblast nuclei were larger and punctated (FIG. 1A bottom). Leveraging this distinction, automated image analyses was developed that utilized machine learning algorithms to classify nuclei types and tabulate hepatocyte nuclei numbers. […] Besides quantifying hepatocyte nuclei that have completed mitosis, the number of nuclei in the process of mitosis were also quantified. Two additional analysis pipelines were built to detect nuclear morphologies consistent with cells undergoing metaphase and anaphase.
FIG. 1B top summarizes the workflow of the screen. Primary screening was done on human primary hepatocytes, preconditioned for seven days by non-parenchymal cells in the screening platform. Upon stabilization in vitro, cultures were treated with the chemical library for 48 hours. All compounds were tested in duplicates, at a single concentration of 15 μM. This single concentration was selected via a pilot screen of ˜2,000 small molecules. All 12,480 small molecules were initially tested on a single donor of cryopreserved hepatocytes (donor a) in order to eliminate noise from donor-to-donor variability. Following compound treatment, media supernatants were collected for functional analyses via ELISA and cultures were fixed in 4% paraformaldehyde for proliferation analyses via imaging.
To identify proliferation hits, three image-based readouts—one each to quantify the number of (1) hepatocyte nuclei in interphase, (2) nuclei in metaphase and (3) nuclei in anaphase—were integrated. z Scores were converted into p values, which were then used to generate ranked lists of compounds based on the efficacy and consistency of effects across the different proliferation readouts. Efficacy was assessed by the product of p values (pprod=pinter×pmeta×pana); consistency was evaluated by the maximum of p values (pmax=max(pinter, pmeta, pana). Compounds were considered proliferation hits if pprod<1×10^−6 and pmax<0.25. Functional hits were selected by an ELISA […]. Compounds with ELISA z>3.0 were eliminated as toxic. 93 compounds met all hit selection criteria, qualifying as Functional Proliferation Hits (FPH); FIG. 1B bottom illustrates the types of compounds that constituted this set of hits.

Data set [3] concerns iPS-derived endothelial cells. Description: Differentiation of iPS-derived endothelial cells (nitric oxide). Format: cell-based. Here is the method:
Cells were assayed for nitric oxide (NO), a mature marker for endothelial cells. CB=FPH2, M=FH1, E=PH1, while Null and DMSO are control runs with no additive and vehicle only, respectively.

Data set [4] has as its system iHeps. Briefly: CYP450 activities of treated iHeps through isoenzyme-specific probes. It counts as cell-based, human. Here is the method:
Culture media were collected and frozen at −20° C. until analysis. Albumin content was measured through sandwich ELISA assays (MP Biomedicals, Fitzgerald, Bethyl Laboratories) using horseradish peroxidase detection and 3,3′,5,5′-tetramethylbenzidine (TMB, Fitzgerald Industries) as a substrate. Urea concentration was determined colorimetrically using diacetylmonoxime with acid and heat (Stanbio Labs). To quantify CYP450 activity, at 48 hours after small molecule exposure, cultures were incubated with substrates (coumarin from Sigma for CYP2A6, luciferin-IPA from Promega for CYP3A4) for 4 hours at 37° C. Incubation medium was collected and metabolite concentration quantified via luminescence, or fluorescence after hydrolization of potential metabolite conjugates by β-glucuronidase/arylsulfatase (Roche, Ind.).
The ability of compounds of the invention to affect the differentiation and maturation of iHeps was tested. Undifferentiated iPS cells were cultured on Matrigel, supported by primary mouse embryonic fibroblasts. […]
To confirm the staining results, secreted levels of albumin and AFP via ELISA, and CYP450 activities through isoenzyme-specific probes that are either fluorescent or luminescent were measured. […]

Data set [5] concerns primary human hepatocytes. Briefly: Expansion of primary human hepatocytes from six additional cell sources (Ki67/albumin staining, FACS). Format: cell-based. The method, then:
On day seven, the number of hepatocytes was quantified by FACS analysis (FIG. 6B). Day one untreated controls was added to the bar graph for reference.

Ron, sequence (Q04912 25-1400, species assumed): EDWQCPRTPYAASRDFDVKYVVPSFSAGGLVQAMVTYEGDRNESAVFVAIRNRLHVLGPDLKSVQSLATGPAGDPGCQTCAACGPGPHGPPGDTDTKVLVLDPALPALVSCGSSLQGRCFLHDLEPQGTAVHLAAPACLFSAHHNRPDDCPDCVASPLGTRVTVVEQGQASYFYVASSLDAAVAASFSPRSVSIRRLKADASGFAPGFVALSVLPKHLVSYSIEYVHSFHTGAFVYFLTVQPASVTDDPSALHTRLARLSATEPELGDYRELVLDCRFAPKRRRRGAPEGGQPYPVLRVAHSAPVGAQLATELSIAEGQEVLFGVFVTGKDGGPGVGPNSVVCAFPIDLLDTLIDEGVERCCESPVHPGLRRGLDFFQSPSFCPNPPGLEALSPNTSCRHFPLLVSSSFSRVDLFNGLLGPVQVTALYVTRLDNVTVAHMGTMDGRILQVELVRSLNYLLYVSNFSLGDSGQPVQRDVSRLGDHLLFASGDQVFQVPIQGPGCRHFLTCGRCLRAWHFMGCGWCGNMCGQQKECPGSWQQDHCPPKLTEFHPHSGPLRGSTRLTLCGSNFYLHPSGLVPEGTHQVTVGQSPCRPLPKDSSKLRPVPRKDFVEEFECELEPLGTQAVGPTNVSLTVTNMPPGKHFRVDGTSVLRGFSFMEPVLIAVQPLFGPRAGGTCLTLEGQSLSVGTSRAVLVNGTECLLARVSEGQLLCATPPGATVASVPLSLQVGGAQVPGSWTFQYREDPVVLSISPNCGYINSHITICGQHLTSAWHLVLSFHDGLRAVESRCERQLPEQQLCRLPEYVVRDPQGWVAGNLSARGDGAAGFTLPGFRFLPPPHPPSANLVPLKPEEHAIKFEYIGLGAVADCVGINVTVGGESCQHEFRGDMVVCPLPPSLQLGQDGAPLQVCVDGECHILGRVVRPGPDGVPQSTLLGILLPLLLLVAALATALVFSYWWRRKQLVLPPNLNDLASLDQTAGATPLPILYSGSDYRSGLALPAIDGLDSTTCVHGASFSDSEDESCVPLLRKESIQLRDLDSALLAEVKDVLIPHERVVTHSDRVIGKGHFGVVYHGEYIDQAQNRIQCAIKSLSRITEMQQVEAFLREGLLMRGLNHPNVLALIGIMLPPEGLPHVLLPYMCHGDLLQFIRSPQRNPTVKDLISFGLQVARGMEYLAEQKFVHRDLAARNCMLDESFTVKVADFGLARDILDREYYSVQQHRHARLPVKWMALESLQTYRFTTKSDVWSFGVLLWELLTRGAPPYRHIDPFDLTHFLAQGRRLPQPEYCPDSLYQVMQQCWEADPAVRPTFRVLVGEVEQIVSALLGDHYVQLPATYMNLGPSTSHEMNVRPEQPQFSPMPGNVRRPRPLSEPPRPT
RSK3, sequence (Q15349 whole entry, species assumed): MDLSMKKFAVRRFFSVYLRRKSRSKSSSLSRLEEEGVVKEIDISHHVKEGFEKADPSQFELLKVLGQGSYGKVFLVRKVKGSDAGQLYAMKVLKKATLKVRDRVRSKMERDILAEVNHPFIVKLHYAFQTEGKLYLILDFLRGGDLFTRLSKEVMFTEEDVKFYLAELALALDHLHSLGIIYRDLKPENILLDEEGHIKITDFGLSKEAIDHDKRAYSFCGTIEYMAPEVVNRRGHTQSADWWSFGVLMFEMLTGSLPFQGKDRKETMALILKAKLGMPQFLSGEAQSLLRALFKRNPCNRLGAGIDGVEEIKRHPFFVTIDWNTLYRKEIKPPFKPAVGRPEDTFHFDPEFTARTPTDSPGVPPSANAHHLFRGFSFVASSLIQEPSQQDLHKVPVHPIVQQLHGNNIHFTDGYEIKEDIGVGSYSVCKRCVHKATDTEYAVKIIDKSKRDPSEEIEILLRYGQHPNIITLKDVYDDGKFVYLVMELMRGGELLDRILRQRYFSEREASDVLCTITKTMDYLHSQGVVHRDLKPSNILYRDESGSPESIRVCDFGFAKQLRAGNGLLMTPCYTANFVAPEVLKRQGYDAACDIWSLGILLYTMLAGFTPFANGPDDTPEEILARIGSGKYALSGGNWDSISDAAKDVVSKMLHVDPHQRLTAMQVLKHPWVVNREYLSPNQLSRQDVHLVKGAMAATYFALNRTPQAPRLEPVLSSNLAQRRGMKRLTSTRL

On to `Cc1ccc(Cl)cc1N(CC(=O)Nc1c(F)cccc1F)S(C)(=O)=O` [FPH2, 2-(N-(5-chloro-2-methylphenyl)methylsulfonamido)-N-(2,6-difluorophenyl)acetamide], for which the inhibition at 1 µM on PDGFRβ, against CLK4, against RSK3, against Ron and on CaMK1 δ was 6.7 to 18.4% in each case. For the same compound, the “albumin staining (immunofluorescent)” value in the data set on iHeps [1] (treated iHeps) is given as “dramatic increases”. Moreover, the “hepatocyte phenotype of treated iHeps” value in the data set with iHeps [1] (treatment from day 21, 9 days) is on record as “more mature hepatocyte phenotypes”. In data set [2], the “number of nuclei undergoing mitosis” value is “elevated”. For the same compound, in [2] (15 μM, 48 hours), the “increase in hepatocyte nuclei numbers during primary screening” value is 1.5 ×. For the same compound, the “differentiation of iPS-derived endothelial cells (nitric oxide)” value in data set [3] is “induce differentiation”. Moreover, the CYP3A4 activity increase with iHeps [4] amounted to 45 times. In [5] (day seven, all donors), the “number of hepatocytes by FACS” value is on record as “increase”. The “Ki67 staining co-localized with albumin labeled hepatocytes” value in data set [5] (six additional cell sources, six days in culture) is recorded as “increased”.
